For 32 compounds, RP-LC retention time results are on record in the METLIN SMRT retention time set (Domingo-Almenara et al. 2019).

The series in a line: gradient 5% acetonitrile 3 min, to 50% in 2 min, to 85% in 15 min, held 3 min, 100 µL/min. The conditions noted are these: column: Zorbax Extend-C18 2.1 x 50 mm; eluents: water / acetonitrile, 0.1% formic acid. A digest of the protocol:
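Pure standards were analyzed in mixtures of ~100 molecules using HPLC coupled to a quadrupole time-of-flight mass spectrometer, in both positive and negative ionization mode. Separation used a Zorbax Extend-C18 column (2.1 × 50 mm, 1.8 μm) at 100 μL/min, with water and acetonitrile each containing 0.1% formic acid. Dead and dwell volumes were 40 μL and 900 μL, and data were collected over 3 months. Retention time was read from computationally picked adduct peaks, each inspected manually.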
Turning to `CO[C@H]1C(=O)N(C2CCN(S(=O)(=O)Cc3ccccc3)CC2)[C@H]1c1ccncc1`, the RP-LC retention time was found to be 632 s.

Take `COc1ccc(-c2nc3ccc(C)cn3c2Nc2ccccc2C)cc1`: the RP-LC retention time came to 761 s.

As for `COc1ccc(NC(=O)C2CCCCC2)c2ccccc12`, the RP-LC retention time was determined as 861 s.

With `O=C(C1=CN(c2ccccc2)c2cc(Cl)ccc2S1(=O)=O)N1CCCCC1`, the RP-LC retention time amounted to 930 s.

As for `COc1cccc(-n2c(=O)c(C(=O)Nc3cc(F)cc(F)c3)c(O)c3cccnc32)c1`, the RP-LC retention time worked out at 1210 s.

The compound `COc1ccc(NC(=O)Cn2c(C)nc3c(sc4nc(-c5ccccc5)ccc43)c2=O)cc1` had an RP-LC retention time of 988 s.

In turn, `Cc1cc(C)n(-c2cc(N3CCN(c4nc(-c5ccccc5)cs4)CC3)ccc2[N+](=O)[O-])n1` returned an RP-LC retention time of 1190 s.

The compound `COc1ccc(-c2noc(C3CCCN3C(=O)c3ccco3)n2)cc1` (configuration not stated) registered an RP-LC retention time of 809 s.

As to `O=C1CC(c2noc(-c3cc(F)ccc3F)n2)CN1c1ccc(F)cc1` (configuration not stated), the RP-LC retention time worked out at 944 s.

Take `Cc1noc(-c2ccc(OC3CN(C(=O)c4sccc4C)C3)cc2)n1`: the RP-LC retention time turned out to be 900 s.

On to `O=C(C1=CN(c2ccc(Br)cc2)c2cc(Cl)ccc2S1(=O)=O)N1CCOCC1`, for which the RP-LC retention time was 924 s.

The compound `COC(=O)C1=CN(c2ccccc2)c2ccc(F)cc2S1(=O)=O` had an RP-LC retention time of 817 s.

In the case of `Cc1cc(C)c(S(=O)(=O)Nc2ccc(-c3cn4ccccc4n3)cc2)cc1C`, the RP-LC retention time was 719 s.

In the case of `COc1ccc(C)cc1NC(=O)Cn1c(C)nc2c(sc3nc(-c4ccccc4)ccc32)c1=O`, the RP-LC retention time was 1110 s.

As for `Cc1ccc(-c2cc3c(N4CCC(C(=O)NC5CCCC5)CC4)nccn3n2)c(C)c1`, the RP-LC retention time stood at 849 s.

For `Cc1ccc(-n2c(N3CCCC(C(=O)NCCc4cccs4)C3)nc3ccsc3c2=O)cc1` (configuration not stated), the RP-LC retention time turned out to be 913 s.

Compound `O=C(Cn1cccc1-c1nc(-c2ccccc2)no1)N1CCCc2ccccc21` came in with an RP-LC retention time of 1210 s.

For the compound `Cc1cc(C)cc(NC(=O)N2CCN(c3cc(-c4cccnc4)[nH]n3)CC2)c1`, the RP-LC retention time is 644 s.

In the case of `O=C(COc1ccc(Cl)cc1)Nc1c(-c2ccc(F)cc2)nc2ccccn12`, the RP-LC retention time turned out to be 744 s.

As for `CCOC(=O)Cc1ccc(NC(=O)NCc2c(C)nn(C)c2C)cc1`, the RP-LC retention time was found to be 680 s.

In turn, `CCOc1ccc(CC(=O)N2C[C@@H]3C[C@H](NC(=O)c4cccs4)[C@H]2C3)cc1` had an RP-LC retention time of 782 s.

`O=C(CSc1nc2ncccc2[nH]1)NC1CCCCC1` displayed an RP-LC retention time of 621 s.

Consider `Nc1cc(C2CCN(C(=O)Cc3ccccc3F)CC2)no1`, for which the RP-LC retention time was 676 s.

For the compound `O=C(NCC1CCCCC1)C1CCN(C(=O)c2ncn3c2COC(c2ccc(F)cc2)C3)CC1` (configuration not stated), the RP-LC retention time is 846 s.

Consider `COc1ccccc1NC(=O)N1CCC2(CC1)NC(=O)c1cc(Cl)ccc1N2C`, for which the RP-LC retention time stood at 806 s.

Compound `O=C(Nc1nc(-c2ccccc2)cs1)c1ccc(S(=O)(=O)N2CCCCC2)cc1` had an RP-LC retention time of 1150 s.

In the case of `Cc1cc(N2CCC(NC(=O)Nc3ccccc3Cl)C2=O)ccc1F` (configuration not stated), the RP-LC retention time was found to be 878 s.

As for `CCN1CCN(CCCNC(=O)C2CCN(Cc3cn(C)c4ccc(Cl)cc34)CC2)CC1`, the RP-LC retention time turned out to be 564 s.

`Cc1cc(S(=O)(=O)N2CCCC2c2nc(-c3ccc(Cl)cc3)no2)ccc1F` (configuration not stated) displayed an RP-LC retention time of 1240 s.

For `COc1ccc(OC)c(CNC(=O)c2nnc(-c3ccc(S(=O)(=O)N4CCOCC4)cc3)o2)c1`, the RP-LC retention time amounted to 826 s.

As to `O=C(Cn1cccc(-c2nc(-c3ccc(F)cc3)no2)c1=O)NCC1CCCO1` (configuration not stated), the RP-LC retention time worked out at 706 s.

With `O=C(NCC1CCCO1)c1ccc(-c2ccc(N3CCCCC3)nc2)cc1` (configuration not stated), the RP-LC retention time came to 613 s.
